Common to all, as to format: cell-based
Assay [1] has as its target T1, human somatostatin receptor subtype 2 (Homo sapiens, UniProt P30874).
T1 construct: expressed in transfected cells
As to the kind of experiment: Functional assay for SSTR2 agonists (HTRF cAMP). As to conditions: CHO-K1 cells stably expressing human SST2; NKH477-stimulated cAMP; 20 min at 37 C; read-out: hSST2 cAMP Avg EC50. The method in brief:
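Agonist activity read as fall in intracellular cAMP: HTRF 665/620 nm ratio regressed to a cAMP standard curve, EC50 fitted. Stable human SSTR2 CHO-K1 cells exposed 20 min at 37 °C to compound, final concentrations typically 0-10,000 nM.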

Another assay has as its target T2, SST2 (Homo sapiens, UniProt P30874).
T2 construct: host or cells: PathHunter CHO-K1 SST2 cells
Nature of the assay: PathHunter CHO-K1 SST2 Internalization Assay. As to conditions: PathHunter CHO-K1 SST2 cells; 90 min at 37 C; luminescence; read-out: Internalization EC50. The gist of the method:
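Four-parameter nonlinear fits of background-corrected luminescence (duplicate means) gave IC50s. NDCs were serially diluted 1:3 over 11 points from a 10 uM final top concentration and incubated 90 min at 37 C with human SST2 CHO-K1 cells plated 48 h earlier at 2500/well. Beta-Glo read-out developed 60 min at RT.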

For assay [2], the system named is NCI-H524 human small cell lung cancer cells. Nature of the assay: H524 assay: inhibition of cell proliferation (CellTiter Glo). The settings on record: 2 h treatment, washout, additional 70 h incubation. The method in brief:
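Proliferation was measured by CellTiter Glo 70 h after a washout that followed a 2 h pulse of NDC. Doses were an 11-point, two-fold dilution series from 1 uM. IC50 was fitted with a four-parameter model to luminescence-based % inhibition relative to control cells.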

Each structure is given as a SMILES string.

T1 sequence (P30874 whole entry): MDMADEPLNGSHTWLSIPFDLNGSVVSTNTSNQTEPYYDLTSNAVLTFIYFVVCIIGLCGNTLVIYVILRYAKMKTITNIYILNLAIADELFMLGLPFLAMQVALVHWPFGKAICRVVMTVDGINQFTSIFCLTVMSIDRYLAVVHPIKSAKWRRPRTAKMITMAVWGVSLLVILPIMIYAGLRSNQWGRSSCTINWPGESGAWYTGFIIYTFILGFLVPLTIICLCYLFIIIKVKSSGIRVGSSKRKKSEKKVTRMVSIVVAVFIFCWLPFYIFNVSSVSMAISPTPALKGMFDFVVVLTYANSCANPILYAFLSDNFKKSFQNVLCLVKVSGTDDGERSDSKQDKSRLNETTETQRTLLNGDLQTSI
T2 sequence (P30874 whole entry): as above

`CC[C@H](C)[C@@H]([C@@H](CC(=O)N1CCC[C@H]1[C@H](OC)[C@@H](C)C(=O)N[C@H](C)[C@@H](O)c1ccccc1)OC)N(C)C(=O)[C@@H](NC(=O)[C@H](C(C)C)N(C)C(=O)OCc1ccc(NC(=O)[C@H](CCCNC(N)=O)NC(=O)[C@@H](NS(=O)(=O)C[C@H](C)NC(=O)CCOCCC(=O)NCCNc2ncc(-c3cc(C)cc(F)c3)c(N3CCC(N)CC3)c2-c2nc3ccc(Cl)cc3[nH]2)C(C)C)c(O[C@@H]2O[C@H](C(=O)N(C)CC(=O)O)[C@@H](O)[C@H](O)[C@H]2O)c1)C(C)C` [Compound 220]: the EC50 in assay [1] is 0.077 nM; on SST2, 3.1 nM; in assay [2], 7.6 nM.
Consider `CC[C@H](C)[C@@H]([C@@H](CC(=O)N1CCC[C@H]1[C@H](OC)[C@@H](C)C(=O)N[C@H](C)[C@@H](O)c1ccccc1)OC)N(C)C(=O)[C@@H](NC(=O)[C@H](C(C)C)N(C)C(=O)OCc1ccc(NC(=O)[C@H](C)NC(=O)[C@@H](NC(=O)CCOCCC(=O)NCCNc2ncc(-c3cc(C)cc(F)c3)c(N3CCC(N)CC3)c2-c2cc3ccc(Cl)cc3[nH]2)C(C)C)c(O[C@@H]2O[C@H](C(=O)O)[C@@H](O)[C@H](O)[C@H]2O)c1)C(C)C` [Compound 115], for which the results for the EC50 (in assay [1]; on SST2; in assay [2]) were 0.075 nM, 5.9 nM and 5.1 nM, respectively.
Turning to `CC[C@H](C)[C@@H]([C@@H](CC(=O)N1CCC[C@H]1[C@H](OC)[C@@H](C)C(=O)N[C@H](C)[C@@H](O)c1ccccc1)OC)N(C)C(=O)[C@@H](NC(=O)[C@H](C(C)C)N(C)C(=O)OCc1ccc(NC(=O)[C@H](C)NC(=O)[C@@H](NC(=O)CCOCCC(=O)NCCNc2ncc(-c3cncc(C)c3)c(N3CCC(N)CC3)c2-c2nc3ccc(Cl)cc3[nH]2)C(C)C)c(O[C@@H]2O[C@H](C(=O)O)[C@@H](O)[C@H](O)[C@H]2O)c1)C(C)C` [Compound 129], the figures for the EC50 (in assay [1]; at SST2; in assay [2]) were 190 nM, 960 nM and 3000 nM, respectively.
Take `CC[C@H](C)[C@@H]([C@@H](CC(=O)N1CCCC1[C@H](OC)[C@@H](C)C(=O)N[C@H](C)[C@@H](O)c1ccccc1)OC)N(C)C(=O)[C@@H](NC(=O)[C@H](C(C)C)N(C)C(=O)OCc1ccc(NC(=O)[C@H](CCCNC(N)=O)NC(=O)[C@@H](NC(=O)[C@H](Cc2c[nH]cn2)NC(=O)CCOCCC(=O)NCCNc2ncc(-c3cc(C)cc(F)c3)c(N3CCC(N)CC3)c2-c2nc3ccc(Cl)cc3[nH]2)C(C)C)c(OCC(=O)O)c1)C(C)C` (stereo partly drawn) [Compound 202]: the EC50 in assay [1] turned out to be 0.14 nM; on SST2, 4.6 nM; in assay [2], 14 nM.
On to `CC[C@H](C)[C@@H]([C@@H](CC(=O)N1CCC[C@H]1[C@H](OC)[C@@H](C)C(=O)N[C@H](C)[C@@H](O)c1ccccc1)OC)N(C)C(=O)[C@@H](NC(=O)[C@H](C(C)C)N(C)C(=O)OCc1ccc(NC(=O)[C@H](C)NC(=O)[C@@H](NC(=O)CCOCCOCCOCCOCCC(=O)NCCNc2ncc(-c3cc(C)cc(F)c3)c(N3CCC(N)CC3)c2-c2cc3ccc(Cl)cc3[nH]2)C(C)C)c(O[C@@H]2O[C@H](C(=O)O)[C@@H](O)[C@H](O)[C@H]2O)c1)C(C)C` [Compound 112], for which the figures for the EC50 (in assay [1]; on SST2; in assay [2]) were 0.12 nM, 8.4 nM and 10 nM, respectively.
The corresponding values for `CC[C@H](C)[C@@H]([C@@H](CC(=O)N1CCC[C@H]1[C@H](OC)[C@@H](C)C(=O)N[C@H](C)[C@@H](O)c1ccccc1)OC)N(C)C(=O)[C@@H](NC(=O)[C@H](C(C)C)N(C)C(=O)OCc1ccc(NC(=O)[C@H](CCCNC(N)=O)NC(=O)[C@@H](NC(=O)C[C@@H](N)C(=O)NCCOCCC(=O)NCCNc2ncc(-c3cc(C)cc(F)c3)c(N3CCC(N)CC3)c2-c2nc3ccc(Cl)cc3[nH]2)C(C)C)c(O[C@@H]2O[C@H](C(=O)N[C@@H](CCCCNC(=O)CCCCc3ccc(I)cc3)C(=O)O)[C@@H](O)[C@H](O)[C@H]2O)c1)C(C)C` [Compound 211] are 0.19 nM, 3.2 nM and 89 nM.
Regarding `CC[C@H](C)[C@@H]([C@@H](CC(=O)N1CCC[C@H]1[C@H](OC)[C@@H](C)C(=O)N[C@H](C)[C@@H](O)c1ccccc1)OC)N(C)C(=O)[C@@H](NC(=O)[C@H](C(C)C)N(C)C(=O)OCc1ccc(NC(=O)[C@H](CCCNC(N)=O)NC(=O)[C@@H](NC(=O)CCOCCC(=O)NCCNc2ncc(-c3cc(C)cc(F)c3)c(N3CCC(N)CC3)c2-c2nc3ccc(Cl)cc3[nH]2)C(C)C)c(O[C@@H]2O[C@H](C(=O)N[C@@H](CCCCNC(=O)CCCCc3ccc(I)cc3)C(=O)O)[C@@H](O)[C@H](O)[C@H]2O)c1)C(C)C` [Compound 54], the EC50 in assay [1] turned out to be 0.26 nM; at SST2, 2.1 nM; in assay [2], 20 nM.
In the case of `CC[C@H](C)[C@@H]([C@@H](CC(=O)N1CCC[C@H]1[C@H](OC)[C@@H](C)C(=O)N[C@H](C)[C@@H](O)c1ccccc1)OC)N(C)C(=O)[C@@H](NC(=O)[C@H](C(C)C)N(C)C(=O)OCc1ccc(NC(=O)[C@H](CCCNC(N)=O)NC(=O)[C@@H](NC(=O)Cn2cc(CCOCCC(=O)NCCNc3ncc(-c4cc(C)cc(F)c4)c(N4CCC(N)CC4)c3-c3nc4cc(Cl)ccc4[nH]3)nn2)C(C)C)c(O[C@@H]2O[C@H](C(=O)N3CCNCC3)[C@@H](O)[C@H](O)[C@H]2O)c1)C(C)C` [Compound 238], the results for the EC50 (in assay [1]; at SST2; in assay [2]) were 0.12 nM, 4.7 nM and 2.9 nM, respectively.
In the case of `CC[C@H](C)[C@@H]([C@@H](CC(=O)N1CCC[C@H]1[C@H](OC)[C@@H](C)C(=O)N[C@H](C)[C@@H](O)c1ccccc1)OC)N(C)C(=O)[C@@H](NC(=O)[C@H](C(C)C)N(C)C(=O)OCc1ccc(NC(=O)[C@H](CCCNC(N)=O)NC(=O)[C@@H](NC(=O)[C@H](CCC(=O)O)NC(=O)CCOCCC(=O)NCCNc2ncc(-c3cc(C)cc(F)c3)c(N3CCC(N)CC3)c2-c2nc3ccc(Cl)cc3[nH]2)C(C)C)c(OCCN)c1)C(C)C` [Compound 1], the EC50 in assay [1] was 0.25 nM; on SST2, 18 nM; in assay [2] it was 15 nM.
On to `CC[C@H](C)[C@@H]([C@@H](CC(=O)N1CCC[C@H]1[C@H](OC)[C@@H](C)C(=O)N[C@H](C)[C@@H](O)c1ccccc1)OC)N(C)C(=O)[C@@H](NC(=O)[C@H](C(C)C)N(C)C(=O)OCc1ccc(NC(=O)[C@H](CCCNC(N)=O)NC(=O)[C@@H](NC(=O)CCOCCC(=O)NCCCNc2ncc(-c3cc(C)cc(F)c3)c(N3CCC(N)CC3)c2-c2nc3ccc(Cl)cc3[nH]2)C(C)C)c(O[C@@H]2O[C@H](C(=O)O)[C@@H](O)[C@H](O)[C@H]2O)c1)C(C)C` [Compound 195], for which the EC50 in assay [1] worked out at 0.35 nM; on SST2, 4.1 nM; in assay [2], 8.5 nM.
Take `CC[C@H](C)[C@@H]([C@@H](CC(=O)N1CCC[C@H]1[C@H](OC)[C@@H](C)C(=O)N[C@H](C)[C@@H](O)c1ccccc1)OC)N(C)C(=O)[C@@H](NC(=O)[C@H](C(C)C)N(C)C(=O)OCc1ccc(NC(=O)[C@H](CCCNC(N)=O)NC(=O)[C@@H](NC(=O)[C@H](CCC(=O)O)NC(=O)CCOCCOCCOCCOCCC(=O)NCCNc2ncc(-c3cc(C)cc(F)c3)c(N3CCC(N)CC3)c2-c2nc3ccc(Cl)cc3[nH]2)C(C)C)cc1C(=O)N1CC(N)C1)C(C)C` [Compound 65]: the EC50 was found to be 0.074 nM in assay [1], 3.4 nM on SST2 and 17 nM in assay [2].

For the origin of these results see US20260007758A1, “SO[…]-2 RECEPTOR (SST2R) NON-PEPTIDE DRUG CONJUGATES AND USES THEREOF” (Crinetics Pharmaceuticals, Inc., priority 2024, published 2026).
